Active and inactive are the calls of the source. No cut-off for these calls is given here.
Legend:
[1] = system: Receptor-type tyrosine-protein kinase FLT3 (Homo sapiens), P36888 [UNDEFINED MUTATION]; experiment: Inhibition of FLT3 ITD/D835V mutant (unknown origin) assessed as residual activity at 1000 nM by KINOMEscan analysis relative to control
[2] = target: T1, Inhibitor of nuclear factor kappa-B kinase subunit alpha (Homo sapiens) (UniProt O15111); experiment: Inhibition of IKK-alpha (unknown origin) assessed as residual activity at 100 nM by KINOMEscan analysis relative to control
T1 sequence (whole entry): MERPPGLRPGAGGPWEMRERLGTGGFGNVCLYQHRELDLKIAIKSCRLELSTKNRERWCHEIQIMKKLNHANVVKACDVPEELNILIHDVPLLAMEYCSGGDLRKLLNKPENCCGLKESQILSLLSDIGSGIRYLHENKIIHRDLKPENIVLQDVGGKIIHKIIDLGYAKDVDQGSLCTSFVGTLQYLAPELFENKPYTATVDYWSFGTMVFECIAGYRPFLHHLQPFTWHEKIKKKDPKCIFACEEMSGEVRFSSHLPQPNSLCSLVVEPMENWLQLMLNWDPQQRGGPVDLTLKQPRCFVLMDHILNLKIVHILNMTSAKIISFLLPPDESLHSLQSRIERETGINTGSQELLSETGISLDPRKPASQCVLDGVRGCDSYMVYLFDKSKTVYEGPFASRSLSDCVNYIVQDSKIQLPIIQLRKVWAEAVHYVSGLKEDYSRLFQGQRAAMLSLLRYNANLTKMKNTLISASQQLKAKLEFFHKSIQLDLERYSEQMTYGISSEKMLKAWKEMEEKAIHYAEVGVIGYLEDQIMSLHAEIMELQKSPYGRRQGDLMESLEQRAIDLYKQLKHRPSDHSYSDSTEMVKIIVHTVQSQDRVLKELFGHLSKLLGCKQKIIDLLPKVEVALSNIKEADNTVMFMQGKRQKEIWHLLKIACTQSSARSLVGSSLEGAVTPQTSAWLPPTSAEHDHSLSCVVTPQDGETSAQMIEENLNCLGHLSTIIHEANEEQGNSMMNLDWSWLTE

[3] = target: T2, Homeodomain-interacting protein kinase 4 (Homo sapiens) (UniProt Q8NE63); experiment: Inhibition of HIPK4 (unknown origin) assessed as residual activity at 100 nM by KINOMEscan analysis relative to control
T2 sequence (whole entry): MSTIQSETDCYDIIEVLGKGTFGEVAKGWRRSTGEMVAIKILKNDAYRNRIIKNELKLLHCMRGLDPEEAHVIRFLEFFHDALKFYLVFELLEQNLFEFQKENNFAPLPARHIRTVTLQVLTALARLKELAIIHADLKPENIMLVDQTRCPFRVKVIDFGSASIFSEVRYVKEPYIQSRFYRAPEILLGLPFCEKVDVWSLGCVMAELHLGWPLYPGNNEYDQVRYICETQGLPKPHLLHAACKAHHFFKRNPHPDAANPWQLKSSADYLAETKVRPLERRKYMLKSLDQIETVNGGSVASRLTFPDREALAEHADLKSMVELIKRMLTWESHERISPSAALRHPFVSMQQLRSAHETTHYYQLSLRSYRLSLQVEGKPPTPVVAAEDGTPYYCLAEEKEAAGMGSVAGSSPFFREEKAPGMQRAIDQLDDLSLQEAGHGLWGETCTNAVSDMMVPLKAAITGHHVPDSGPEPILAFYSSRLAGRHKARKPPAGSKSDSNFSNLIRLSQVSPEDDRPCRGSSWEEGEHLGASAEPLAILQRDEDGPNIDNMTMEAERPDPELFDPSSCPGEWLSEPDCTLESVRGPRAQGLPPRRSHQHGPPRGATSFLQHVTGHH

[4] = target: T3, Phosphatidylinositol 5-phosphate 4-kinase type-2 beta (Homo sapiens) (UniProt P78356); experiment: Inhibition of PIP5K2B (unknown origin) assessed as residual activity at 100 nM by KINOMEscan analysis relative to control
T3 sequence (whole entry): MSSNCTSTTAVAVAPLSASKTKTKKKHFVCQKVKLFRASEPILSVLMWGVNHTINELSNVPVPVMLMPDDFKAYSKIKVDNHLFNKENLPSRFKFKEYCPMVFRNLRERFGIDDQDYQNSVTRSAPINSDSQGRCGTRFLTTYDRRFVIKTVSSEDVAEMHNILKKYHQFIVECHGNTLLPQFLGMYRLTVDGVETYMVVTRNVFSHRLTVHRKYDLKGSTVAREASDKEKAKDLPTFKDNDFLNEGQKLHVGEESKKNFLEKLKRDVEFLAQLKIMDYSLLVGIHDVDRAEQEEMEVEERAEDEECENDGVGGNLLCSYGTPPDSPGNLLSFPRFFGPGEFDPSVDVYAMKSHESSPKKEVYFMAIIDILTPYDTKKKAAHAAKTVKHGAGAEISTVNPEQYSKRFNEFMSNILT

[5] = target: GTPase KRas (Homo sapiens) (UniProt P01116); experiment: Binding affinity to N-terminal His10-tagged wild-type human KRAS (1 to 169 residues) expressed in Escherichia coli assessed as binding at 1:1 stoichiometry at 100 uM incubated for 1 hr by native MS analysis
[6] = target: Mitogen-activated protein kinase 3 (Homo sapiens) (UniProt P27361); experiment: Inhibition of ERK1 (unknown origin) assessed as residual activity at 100 nM by KINOMEscan analysis relative to control
[7] = target: T4, Tyrosine-protein kinase ZAP-70 (Homo sapiens) (UniProt P43403); experiment: Inhibition of ZAP70 (unknown origin) assessed as residual activity at 100 nM by KINOMEscan analysis relative to control
T4 sequence (whole entry): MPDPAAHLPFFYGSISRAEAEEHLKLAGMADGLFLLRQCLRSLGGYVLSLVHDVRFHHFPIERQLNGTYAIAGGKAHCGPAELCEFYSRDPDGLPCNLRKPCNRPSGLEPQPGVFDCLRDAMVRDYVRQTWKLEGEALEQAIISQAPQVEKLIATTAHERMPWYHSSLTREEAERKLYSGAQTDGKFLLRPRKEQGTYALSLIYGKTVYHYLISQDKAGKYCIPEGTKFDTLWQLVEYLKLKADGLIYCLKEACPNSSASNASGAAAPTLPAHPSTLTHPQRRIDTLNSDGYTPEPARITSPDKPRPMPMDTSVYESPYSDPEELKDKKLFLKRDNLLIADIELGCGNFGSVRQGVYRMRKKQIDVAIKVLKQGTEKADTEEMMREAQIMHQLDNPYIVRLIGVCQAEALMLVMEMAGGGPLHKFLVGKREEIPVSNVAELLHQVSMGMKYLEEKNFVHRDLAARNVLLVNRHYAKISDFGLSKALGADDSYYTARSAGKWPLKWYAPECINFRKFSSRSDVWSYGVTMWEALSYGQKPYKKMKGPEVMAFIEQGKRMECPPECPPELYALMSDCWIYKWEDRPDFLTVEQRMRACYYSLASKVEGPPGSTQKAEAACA

[8] = system: Phosphatidylinositol 4,5-bisphosphate 3-kinase catalytic subunit alpha isoform (Homo sapiens), P42336 [Q546K]; experiment: Inhibition of PIK3CA Q546K mutant (unknown origin) assessed as residual activity at 100 nM by KINOMEscan analysis relative to control

| SMILES | Activity [1] | Activity [2] | Activity [3] | Activity [4] | Activity [5] | Activity [6] | Activity [7] | Activity [8] |
| --- | --- | --- | --- | --- | --- | --- | --- | --- |
| COc1cc2nc(C)nc(N[C@H](C)c3cccc(-c4cn[nH]c4)c3)c2cc1OC | 100% | – | – | – | – | – | – | – |
| COc1cc2ncnc(N[C@H](C)c3cccc4ccccc34)c2cc1OC | – | 79% | 100% | 91% | inactive | 91% | 77% | 70% |

— ChEMBL document CHEMBL5678818, “Discovery of potent SOS1 inhibitors that block RAS activation via disruption of the RAS-SOS1 interaction” (Proc Natl Acad Sci U S A, 2019)
